Source: patent US20230041563A1, “N-(1,3,4-OXADIAZOL-2-YL)ARYLCARBOXAMIDES OR SALTS THEREOF, PREPARATION METHODS, HERBICIDAL COMPOSITIONS AND USES THEREOF” (priority 2018, published 2023)

Tests used:
[1] = tested on: Rice (Longyang 16); experiment: Post-emergence control experiment of R configuration compound activity (directly sowed rice 1.5-2 leaf stage, 25 days); assay type: in vivo; conditions: for safety on rice (Longyang 16), in words: in vivo
Description: (§1) Experiment on weeding effect in post-emergence stage: after 3-4 weeks of sowing, the test plants were treated in the 1.5-2 leaf stage of the directly sowed rice Longyang 16, and the 4-5 leaf stage of weeds. After the application of the compounds of the present invention, the plants were cultured for 25 days in the greenhouse, and then the experimental results of the weeding were counted.
Longyang 16 is a representative and important long-grain fragrant rice in Northeast China. Long-grain fragrant rice is more sensitive to herbicides, especially to HPPD herbicides such as Mesotrione, Benzobicylon and the like, which are prone to causing phytotoxicity.

[2] = tested on: Leptochloa chinensis; experiment: Transplanted rice safety evaluation and weed control effect evaluation in rice field; assay type: in vivo; conditions: Table 8, dose 60 g a.i./ha
From the text: (§2) Transplanted rice safety evaluation and weed control effect evaluation in rice field:
(§3) Rice field soil was loaded into a 1/1,000,000 ha pot. The seeds of echinochloa crusgali, scirpus juncoides, Bidens tripartita, Sagittaria trifolia, Monochoria vaginalis and Leptochloa chinensis were sowed and gently covered with soil, then left to stand still in greenhouse in the state of 0.5-1 cm of water storage. The tuber of Sagittaria trifolia was planted in the next day or 2 days later. It was kept at 3-4 cm of water storage thereafter. The weeds were treated by dripping the WP or SC water diluents prepared according to the common preparation method of the compounds of the present invention with pipette homogeneously to achieve specified effective amount when echinochloa crusgali, scirpus juncoides, Bidens tripartita, Monochoria vaginalis and Leptochloa chinensis reached 0.5 leaf stage and Sagittaria trifolia reached the time point of primary leaf stage.
(§4) The fertility condition of echinochloa crusgali, scirpus juncoides, Bidens tripartita, Leptochloa chinensis, Sagittaria trifolia and Monochoria vaginalis 14 days after the treatment of the compound of the invention and the fertility condition of rice 21 days after the treatment of the compound of the invention respectively with the naked eye. Evaluate the weed control effect with 0-5 activity standard level. Many compounds show excellent activity and selectivity.

[3] = tested on: Sagittaria trifolia; experiment: as above; assay type: in vivo; conditions: Table 8, dose 60 g a.i./ha
From the text: as §2, §3, §4

[4] = tested on: Echinochloa crusgali; experiment: as above; assay type: in vivo; conditions: Table 8, dose 60 g a.i./ha
From the text: as §2, §3, §4

[5] = tested on: Monochoria vaginalis; experiment: as above; assay type: in vivo; conditions: Table 8, dose 60 g a.i./ha
From the text: as §2, §3, §4

[6] = tested on: Digitaria sanguinalis; experiment: Post-emergence control experiment of R configuration compound activity (weeds 4-5 leaf stage, 25 days); assay type: in vivo; conditions: Digitaria sanguinalis, post-emergence; read-out: Digitaria sanguinalis (30 g a.i./ha) inhibition rate
Description: as §1

[7] = tested on: Leptochloa chinensis; experiment: as above; assay type: in vivo; conditions: for inhibition at 60 g/ha / inhibition at 125 g/ha: Dinebra chinensis, post-emergence; for inhibition at 60 g/ha: read-out: Leptochloa chinensis (60 g a.i./ha) inhibition rate; for inhibition at 125 g/ha: read-out: Leptochloa chinensis (125 g a.i./ha) inhibition rate; for activity against key weed Leptochloa chinensis / key weeds, in words: in vivo
Description: as §1

[8] = tested on: Green Setaria viridis; experiment: as above; assay type: in vivo; conditions: Setaria viridis, post-emergence; for inhibition at 30 g/ha: read-out: Green Setaria viridis (30 g a.i./ha) inhibition rate; for inhibition at 60 g/ha: read-out: Green Setaria viridis (60 g a.i./ha) inhibition rate
Description: as §1

[9] = tested on: Abutilon theophrasti; experiment: as above; assay type: in vivo; conditions: Abutilon theophrasti, post-emergence; read-out: Ablation theophrasti (30 g a.i./ha) inhibition rate
Description: as §1

[10] = tested on: Setaria viridis; experiment: Weeding effect in post-emergence stage (greenhouse pot spray); assay type: in vivo
Outline: (§5)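 Read-out: fresh-weight growth control rate scored 3 weeks after spraying, mean of three replicates. Plants treated at 2-3 leaf stage by spray tower, doses 500-15 g a.i./ha (500, 250, 125, 60, 15).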

[11] = tested on: Digitaria sanguinalis; experiment: as above; assay type: in vivo
Outline: as §5

[12] = tested on: Echinochloa crusgalli; experiment: as above; assay type: in vivo
Outline: as §5

[13] = tested on: Rice; experiment: Transplanted rice safety evaluation and weed control effect evaluation in rice field; assay type: in vivo, rice (japonica rice/Indica rice); conditions: Table 8, dose 60 g a.i./ha
Description: as §2
In addition, the rice field soil that loaded into the 1/1,000,000 ha pot was leveled to keep water storage at 3-4 cm depth. The 3 leaf stage rice (japonica rice/Indica rice) was transplanted at 3 cm of transplanting depth the next day. The compound of the present invention was treated by the same way after 5 days of transplantation.
as §4

Structure (SMILES)	Rice (Longyang 16) (250 g a.i./ha) inhibition rate [1] [%]	Rice (Longyang 16) (500 g a.i./ha) inhibition rate [1] [%]	safety on rice (Longyang 16), in words [1]	inhibition at 30 g/ha [6] [%]	inhibition at 60 g/ha [7] [%]	inhibition at 125 g/ha [7] [%]	activity against key weed Leptochloa chinensis / key weeds, in words [7]	inhibition at 30 g/ha [8] [%]	inhibition at 60 g/ha [8] [%]	inhibition at 30 g/ha [9] [%]	further results
CCC[S@@+]([O-])c1c(C(F)(F)F)ccc(C(=O)Nc2nnc(C)o2)c1F [1-8 (R-configuration)]	0	0	high safety	100	85	100	better activity	75	100	100	Leptochloa chinensis (activity level) [2]: 5 (Level 5: growth control rate is above 85%); Sagittaria trifolia (activity level) [3]: 5 (Level 5: growth control rate is above 85%); Echinochloa crusgali (activity level) [4]: 5 (Level 5: growth control rate is above 85%); Monochoria vaginalis (activity level) [5]: 5 (Level 5: growth control rate is above 85%); Setaria viridis (activity level) ([10]; Table 3, dose 3.75 g a.i./ha): 2 (Level 2: growth control rate is greater than or equal to 20% and less than 40%); Setaria viridis (activity level) ([10]; Table 3, dose 7.5 g a.i./ha): 4 (Level 4: growth control rate is greater than or equal to 60% and less than 85%); Setaria viridis (activity level) ([10]; Table 3, dose 15 g a.i./ha): 5 (Level 5: growth control rate is above 85%); Setaria viridis (activity level) ([10]; Table 3, dose 30 g a.i./ha): 5 (Level 5: growth control rate is above 85%); Setaria viridis (activity level) ([10]; Table 3, dose 60 g a.i./ha): 5 (Level 5: growth control rate is above 85%); Digitaria sanguinahs (activity level) ([11]; Table 3, dose 3.75 g a.i./ha): 4 (Level 4: growth control rate is greater than or equal to 60% and less than 85%); Digitaria sanguinahs (activity level) ([11]; Table 3, dose 7.5 g a.i./ha): 5 (Level 5: growth control rate is above 85%); Digitaria sanguinahs (activity level) ([11]; Table 3, dose 15 g a.i./ha): 5 (Level 5: growth control rate is above 85%); Digitaria sanguinahs (activity level) ([11]; Table 3, dose 30 g a.i./ha): 5 (Level 5: growth control rate is above 85%); Digitaria sanguinahs (activity level) ([11]; Table 3, dose 60 g a.i./ha): 5 (Level 5: growth control rate is above 85%); Echinochloa crusgali (activity level) ([12]; Table 3, dose 3.75 g a.i./ha): 5 (Level 5: growth control rate is above 85%); Echinochloa crusgali (activity level) ([12]; Table 3, dose 7.5 g a.i./ha): 5 (Level 5: growth control rate is above 85%); Echinochloa crusgali (activity level) ([12]; Table 3, dose 15 g a.i./ha): 5 (Level 5: growth control rate is above 85%); Echinochloa crusgali (activity level) ([12]; Table 3, dose 30 g a.i./ha): 5 (Level 5: growth control rate is above 85%); Echinochloa crusgali (activity level) ([12]; Table 3, dose 60 g a.i./ha): 5 (Level 5: growth control rate is above 85%); Rice (safety level) [13]: 0 (Level 0: growth control rate is less than 5%)
CCC[S@+]([O-])c1c(C(F)(F)F)ccc(C(=O)Nc2nnc(C)o2)c1F [1-8 (S-configuration)]	15	25	not safe	0	0	10	lower activity	0	15	0	
